Measured values reported in ChEMBL document CHEMBL1143608, “Novel C-17-heteroaryl steroidal CYP17 inhibitors/antiandrogens: synthesis, in vitro biological activity, pharmacokinetics, and antitumor activity in the LAPC4 human prostate cancer xenograft model” (J Med Chem, 2005).

Assays:
[1] = molecular target: T1, 3-oxo-5-alpha-steroid 4-dehydrogenase 2 (Homo sapiens) (UniProt P31213); assay: (§1) Inhibition of [1-beta-2beta-3H]- -testosterone binding to human steroid 5-alpha-reductase type 2 of BPH tissue at 10 uM; type: functional
T1 sequence (whole entry): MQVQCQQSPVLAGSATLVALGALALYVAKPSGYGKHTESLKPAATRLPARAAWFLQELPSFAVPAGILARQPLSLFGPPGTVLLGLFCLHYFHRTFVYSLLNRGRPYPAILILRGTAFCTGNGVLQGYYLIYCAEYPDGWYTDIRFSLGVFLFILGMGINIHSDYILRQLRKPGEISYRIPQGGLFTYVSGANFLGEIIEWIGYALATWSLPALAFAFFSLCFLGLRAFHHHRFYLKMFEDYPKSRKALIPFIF

[2] = molecular target: T2, 3-oxo-5-alpha-steroid 4-dehydrogenase 1 (Homo sapiens) (UniProt P18405); assay: Inhibition of [1-beta-3H]-androstenedione binding to human steroid 5-alpha-reductase type I expressed in DU-145 cells at 10 uM; ni=no inhibition up to 10 uM; type: functional, cell-based
T2 sequence (whole entry): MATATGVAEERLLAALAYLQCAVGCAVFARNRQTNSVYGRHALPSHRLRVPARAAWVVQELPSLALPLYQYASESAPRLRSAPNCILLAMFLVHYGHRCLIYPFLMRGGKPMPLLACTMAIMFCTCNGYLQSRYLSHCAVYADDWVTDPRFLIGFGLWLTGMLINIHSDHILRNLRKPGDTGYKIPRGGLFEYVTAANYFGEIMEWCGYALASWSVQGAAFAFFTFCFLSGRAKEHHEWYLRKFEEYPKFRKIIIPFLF

[3] = molecular target: T2, 3-oxo-5-alpha-steroid 4-dehydrogenase 1 (Homo sapiens); assay: Inhibition of human steroid 5-alpha-reductase type I expressed in DU-145 cells using [1-beta-3H]-androstenedione at a concentration of 10 uM; type: functional, cell-based
[4] = Maximum concentration at 100 mg/kg upon subcutaneous administration was determined in mouse; n = 5; type: ADME, organism-based; design: dose 100 mg/kg, route subcutaneous; conditions: in vivo, sc
[5] = Area under curve at 100 mg/kg upon subcutaneous administration was determined in mouse; n = 5; type: ADME, organism-based; design: dose 100 mg/kg, route subcutaneous; conditions: in vivo, sc
[6] = Volume of distribution at 50 mg/kg upon subcutaneous administration was determined in mouse; n = 5; type: ADME, organism-based; design: dose 50 mg/kg, route subcutaneous; conditions: in vivo, sc
[7] = […] at 50 mg/kg upon subcutaneous administration was determined in mouse; n = 5; type: ADME, organism-based; design: dose 50 mg/kg, route subcutaneous; conditions: in vivo, sc
[8] = Half life at 50 mg/kg upon subcutaneous administration was determined in mouse; n = 5; type: ADME, organism-based; design: dose 50 mg/kg, route subcutaneous; conditions: in vivo, sc
[9] = Elimination rate constant at 50 mg/kg upon subcutaneous administration was determined in mouse; n = 5; type: ADME, organism-based; design: dose 50 mg/kg, route subcutaneous; conditions: in vivo, sc
[10] = Volume of distribution at 100 mg/kg upon subcutaneous administration was determined in mouse; n = 5; type: ADME, organism-based; design: dose 100 mg/kg, route subcutaneous; conditions: in vivo, sc
[11] = Time required for maximum concentration at 50 mg/kg upon subcutaneous administration was determined in mouse; n = 5; type: ADME, organism-based; design: dose 50 mg/kg, route subcutaneous; conditions: in vivo, sc
[12] = Maximum concentration at 50 mg/kg upon subcutaneous administration was determined in mouse; n = 5; type: ADME, organism-based; design: dose 50 mg/kg, route subcutaneous; conditions: in vivo, sc
[13] = Time required for maximum concentration at 100 mg/kg upon subcutaneous administration was determined in mouse; n = 5; type: ADME, organism-based; design: dose 100 mg/kg, route subcutaneous; conditions: in vivo, sc
[14] = Area under curve at 50 mg/kg upon subcutaneous administration was determined in mouse; n = 5; type: ADME, organism-based; design: dose 50 mg/kg, route subcutaneous; conditions: in vivo, sc
[15] = Half life at 100 mg/kg upon subcutaneous administration was determined in mouse; n = 5; type: ADME, organism-based; design: dose 100 mg/kg, route subcutaneous; conditions: in vivo, sc
[16] = molecular target: T3, 3-oxo-5-alpha-steroid 4-dehydrogenase 1 (Homo sapiens, UniProt P18405); assay: Inhibition of [1-beta-3H]-androstenedione binding to human steroid 5-alpha-reductase type I expressed in DU-145 cells at 10 uM; type: functional, cell-based
T3 sequence (P18405 whole entry): T2 sequence (whole entry)

[17] = molecular target: T4, 3-oxo-5-alpha-steroid 4-dehydrogenase 2 (Homo sapiens, UniProt P31213); assay: as §1; type: functional
T4 sequence (P31213 whole entry): T1 sequence (whole entry)

| inhibition [1] [%] | inhibition [2] | inhibition [3] [%] | Cmax [4] [ng/mL] | AUC [5] [ng·h/mL] | T1/2 [8] [min] | Kel [9] [h⁻¹] | Vd [10] [L/kg] | Tmax [13] [min] | T1/2 [15] [min] | SMILES | Vd [6] [L/kg] | MRT [7] [min] | Tmax [11] [min] | Cmax [12] [ng/mL] | AUC [14] [ng·h/mL] | IC50 [16] [nM] | half-life [8] [min] | k el [9] [s⁻¹] | IC50 [17] [nM] |
| --- | --- | --- | --- | --- | --- | --- | --- | --- | --- | --- | --- | --- | --- | --- | --- | --- | --- | --- | --- |
| 17 | No inhibition | – | – | – | – | – | – | – | – | C[C@]12CC[C@H](O)CC1=CCC1C2CC[C@]2(C)C(n3nnc4ccccc43)=CCC12 (some centres not stated) | – | – | – | – | – | – | – | – | – |
| 53 | – | 4 | 32200 | 30200 | 44.17 | 0.942 | 3.27639 | 30 | 36.6 | C[C@]12CC[C@H](O)CC1=CCC1C2CC[C@]2(C)C(n3cnc4ccccc43)=CCC12 (some centres not stated) | 2.09899 | 65.4 | 30 | 16800 | 24000 | – | – | – | – |
| 56 | – | 21 | – | – | – | – | – | – | – | C[C@]12CCC(=O)C=C1CCC1C2CC[C@]2(C)C(n3nnc4ccccc43)=CCC12 (some centres not stated) | – | – | – | – | – | – | – | – | – |
| – | – | – | – | – | – | – | – | – | – | C[C@]12CCC(=O)C=C1CCC1C2CC[C@]2(C)C(n3cnc4ccccc43)=CCC12 (some centres not stated) | 4.207 | 80 | 60 | 5150 | 10800 | 770 | 37.9 | 0.000305 | 480 |
